A compilation of properties of binary mixtures (doi:10.7498/aps.66.196101)

Experiment: xn = mol fraction of the nth substance listed
Conditions: 100 kPa

CCCCCC[n+]1ccccc1.N#C[N-]C#N + O
Conditions	electrical conductivity, x1 = 0.9076 [S/m]	electrical conductivity, x1 = 0.9239 [S/m]	electrical conductivity, x1 = 0.9408 [S/m]	electrical conductivity, x1 = 0.9582 [S/m]	electrical conductivity, x1 = 0.9762 [S/m]	viscosity, x1 = 0.9152 [mPa·s]	viscosity, x1 = 0.9306 [mPa·s]	viscosity, x1 = 0.9488 [mPa·s]	viscosity, x1 = 0.9665 [mPa·s]	viscosity, x2 = 0.0151 [mPa·s]
298.15 K	0.554	0.532	0.512	–	–	49.3	–	51.8	53.7	–
303.15 K	0.682	0.66	0.642	0.615	0.588	39.19	40.28	41.67	–	45.48
308.15 K	0.817	–	0.769	0.739	0.711	32.18	33.01	34.12	35.44	37.16
313.15 K	0.997	0.958	0.927	0.889	0.839	26.76	27.39	28.15	29.09	30.51
318.15 K	1.17	1.12	–	1.05	1	–	23.12	23.8	–	25.35
323.15 K	1.34	1.29	1.26	1.22	1.17	18.75	19.06	19.48	20.12	21.03
328.15 K	1.52	–	1.42	1.39	–	–	16.38	–	17.36	18.12
333.15 K	1.73	1.68	1.64	1.59	1.55	13.84	14.07	14.44	14.95	15.67
338.15 K	–	1.9	–	1.8	1.75	–	12.38	12.75	13.17	–

CCCC[n+]1ccccc1.N#C[N-]C#N + O
Conditions	electrical conductivity, x1 = 0.9189 [S/m]	electrical conductivity, x1 = 0.9335 [S/m]	electrical conductivity, x1 = 0.9486 [S/m]	electrical conductivity, x1 = 0.9642 [S/m]	electrical conductivity, x2 = 0.0198 [S/m]	viscosity, x1 = 0.9257 [mPa·s]	viscosity, x1 = 0.9415 [mPa·s]	viscosity, x1 = 0.9569 [mPa·s]	viscosity, x1 = 0.9726 [mPa·s]	viscosity, x2 = 0.0111 [mPa·s]
298.15 K	1.03	0.997	0.968	–	0.903	28.23	29.04	–	31.13	32.25
303.15 K	–	–	–	1.08	1.06	23.59	24.03	–	25.61	26.58
308.15 K	1.41	1.38	1.34	1.29	1.26	19.79	20.18	20.75	21.47	22.17
313.15 K	1.65	1.6	1.57	–	1.5	–	17.11	–	18.19	18.73
318.15 K	1.93	–	1.85	1.81	1.76	–	14.67	15	–	16.14
323.15 K	2.32	2.26	2.18	2.11	2.05	12.11	12.4	–	13.13	–
328.15 K	2.51	2.47	2.42	2.36	2.3	–	–	11.08	11.44	11.84
333.15 K	2.85	2.81	–	–	2.65	9.38	9.57	–	10.1	10.43
338.15 K	3.22	3.16	3.1	3.05	2.99	8.34	–	8.65	8.93	9.19

CCCC[n+]1ccn(C)c1.N[C@@H](CO)C(=O)[O-] + O
Conditions	electrical conductivity, x1 = 0.8285 [S/m]	electrical conductivity, x1 = 0.843 [S/m]	electrical conductivity, x1 = 0.8591 [S/m]	electrical conductivity, x1 = 0.8757 [S/m]	electrical conductivity, x1 = 0.8918 [S/m]	viscosity, x1 = 0.852 [mPa·s]	viscosity, x1 = 0.8736 [mPa·s]	viscosity, x1 = 0.894 [mPa·s]	viscosity, x1 = 0.9165 [mPa·s]	viscosity, x1 = 0.9388 [mPa·s]
298.15 K	0.0076	0.0071	0.0068	0.0065	–	5107	5135	–	–	5270
303.15 K	0.0118	0.0111	–	–	0.0097	2975	3000	–	3073	3147
308.15 K	0.0196	0.0183	0.017	0.016	0.0151	1828	1843	1868	1897	1952
313.15 K	0.0293	0.028	0.0261	0.0247	0.0237	1135	1159	–	1231	–
318.15 K	0.0423	0.0402	0.0375	0.0357	0.0341	753	768	790	822	870
323.15 K	0.0597	0.0565	0.0534	0.0511	0.0488	523	532	544	566	597
328.15 K	0.0817	–	–	0.0703	0.0679	–	352	–	388	–
333.15 K	–	0.106	–	0.0958	0.0921	247	255	266	279	304
338.15 K	0.146	0.14	–	0.127	0.122	–	187.4	197	212	229

CCCn1cc[n+](C)c1.N[C@@H](CO)C(=O)[O-] + O
Conditions	electrical conductivity, x1 = 0.8651 [S/m]	electrical conductivity, x1 = 0.881 [S/m]	electrical conductivity, x1 = 0.8954 [S/m]	electrical conductivity, x1 = 0.9112 [S/m]	electrical conductivity, x1 = 0.9275 [S/m]	viscosity, x1 = 0.878 [mPa·s]	viscosity, x1 = 0.8933 [mPa·s]	viscosity, x1 = 0.909 [mPa·s]	viscosity, x1 = 0.9253 [mPa·s]	viscosity, x1 = 0.9422 [mPa·s]
298.15 K	0.0244	0.0231	0.0219	0.0204	0.0191	–	2259	–	–	2495
303.15 K	0.0369	0.0356	0.0339	0.0321	0.0301	1399	1414	1439	1477	–
308.15 K	0.0559	0.0538	0.0521	0.0497	0.0469	–	923	942	966	1000
313.15 K	–	0.0775	–	–	0.0685	617	624	633	650	670
318.15 K	0.112	0.109	0.106	–	–	428	–	–	447	462
323.15 K	0.154	–	–	0.14	0.135	300	306	312	322	–
328.15 K	0.204	–	0.194	0.187	0.182	229	231	234	–	245
333.15 K	0.268	0.261	0.256	–	0.241	–	172.3	174.6	178.4	183
338.15 K	0.342	0.333	0.327	–	–	130.5	131.1	132.4	–	137.2
